From US20250281483A1, “TRANSCRIPTION FACTOR EB ACTIVATORS AND USES THEREOF” (Astellas Engineered Small Molecules US, Incorporated, priority 2022, published 2025)
Where two headings read alike, the source gives them in different places.

Key:
[1] = In Vitro Liver Microsomes Metabolic Stability Assay, human; assay type: in vitro ADME; conditions: human liver microsomes 0.5 mg/mL, 1 μM compound, NADPH, 0 and 30 min; scale-up CLint; read-out: CLint, Human LM
Procedure: (§1) In Vitro Liver Microsomes Metabolic Stability Assay of Different Species
(§2) 1. The liver microsomes were stored at −80° C. prior to use.
(§3) 2. The master solution was prepared according to Table 3.
(§4) 3. 40 μL of 10 mM NADPH solution was added to each well. The final concentrations of NADPH was 1 mM. The mixture was pre-warmed at 37° C. for 5 minutes. The negative control samples were prepared by replacing NADPH solutions with 40 μL of ultra-pure H2O. The negative control was used to exclude the misleading factor that resulted from instability of chemical itself. Samples with NADPH were prepared in duplicate. Negative controls were prepared in singlet.
(§5) 4. The reaction was started with the addition of 2 μL of 200 μM control compound or test compound solutions. Verapamil was used as positive control in this study. The final concentration of test compound or control compound was 1 μM.
(§6) 5. Aliquots of 50 μL were taken from the reaction solution at 0 and 30 minutes. The reaction was stopped by the addition of 4 volumes of cold acetonitrile with Internal Standard (100 nM alprazolam, 200 nM imipramine, 200 nM labetalol and 2 μM ketoprofen). Samples were centrifuged at 3, 220 g for 40 minutes. Aliquot of 90 μL of the supernatant was mixed with 90 μL of ultra-pure H2O and then used for LC-MS/MS analysis.
(§7) Peak areas were determined from extracted ion chromatograms. The slope value, k, was determined by linear regression of the natural logarithm of the remaining percentage of the parent drug vs. incubation time curve.
(§8) The in vitro half-life (in vitro t1/2) was determined from the slope value:
(§9) Conversion of the in vitro t1/2 (min) into the in vitro intrinsic clearance (in vitro CLint, in μL/min/mg protein) was done using the following equation (mean of duplicate determinations): […]
(§10) Conversion of the in vitro t1/2 (min) into the scale-up unbound intrinsic clearance (Scale-up CLint, in mL/min/kg) was done using the following equation (mean of duplicate determinations): […]

[2] = In Vitro Liver Microsomes Metabolic Stability Assay, mouse; assay type: in vitro ADME; conditions: mouse liver microsomes 0.5 mg/mL, 1 μM compound, NADPH, 0 and 30 min; scale-up CLint; read-out: CLint, Mouse LM
Procedure: as §1, §2, §3, §4, §5, §6, §7, §8, §9, §10

[3] = In Vitro Liver Microsomes Metabolic Stability Assay, rat; assay type: in vitro ADME; conditions: rat liver microsomes 0.5 mg/mL, 1 μM compound, NADPH, 0 and 30 min; scale-up CLint; read-out: CLint, Rat LM
Procedure: as §1, §2, §3, §4, §5, §6, §7, §8, §9, §10

TFEB = target: T1, TFEB (Homo sapiens, UniProt P19484); test: Tfeb-Translocation Assay HEK-293T-oEX-Tfeb-GFP Cell Line; assay type: cell-based; conditions: HEK-293T-oEX-TFEB-GFP cells
T1 sequence (P19484 1-476): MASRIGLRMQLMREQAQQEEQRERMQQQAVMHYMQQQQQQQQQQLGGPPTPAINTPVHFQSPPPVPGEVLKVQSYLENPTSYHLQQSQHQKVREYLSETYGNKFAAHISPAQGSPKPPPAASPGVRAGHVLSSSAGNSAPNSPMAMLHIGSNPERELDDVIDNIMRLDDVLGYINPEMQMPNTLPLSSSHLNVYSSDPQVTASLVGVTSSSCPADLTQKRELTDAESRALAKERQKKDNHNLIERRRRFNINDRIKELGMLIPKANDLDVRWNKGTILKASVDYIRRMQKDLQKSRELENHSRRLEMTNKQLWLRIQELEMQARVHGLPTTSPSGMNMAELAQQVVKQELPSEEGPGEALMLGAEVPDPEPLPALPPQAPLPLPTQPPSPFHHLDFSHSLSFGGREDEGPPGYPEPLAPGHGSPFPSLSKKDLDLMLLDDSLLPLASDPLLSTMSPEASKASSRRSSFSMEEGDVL
Procedure: Tfeb-Translocation Assay HEK-293T-oEX-Tfeb-GFP Cell Line
• 1). Added 2×10^6 cell into a T75 flask with 15 mL DiVEM medium (with 10% FBS, 1% PS, 1×GLUTAMAX, 1×MEM NEAA, 1×HEPES Buffer Solution and 5 ug/mL blasticidin). • 2). Culturing for 48-72 hours. Cells in logarithmic growth phase were taken for experiment. The other cells were passaged as described in step 1. • 3). Seeded 1×10^4 cells/30 μL/well into 384-well plate (BD 356663). Cultured overnight at 37° C. & 5% CO2 incubator. • 4). Note: Used cells <10 passage
• 1). Compounds were firstly diluted by DMSO to the stock needed (10 mM), and aliquoted and stored at −20° C. • 2). Took one aliquot each time and made 3-fold or 2-fold dilutions as indicated, total 10 doses plus one DMSO control well in the source plate. • 3). Added 150 or 90 nL/well compounds solution to the assay plate by ECHO and incubated for 6 or 18 hours respectively at 37° C. & 5% CO2 incubator.
• 1). Added 30 uL 8% PFA into the wells and incubated 20 min at room temperature. • 2). Discarded the medium, washed the wells twice with DPBS to eliminate foam and bubbles in the well.
• 1). Diluted Hoechest-333824 in DPBS to get 2 μg/mL solution and added 30 uL/well into assay plate, incubated at room temperature for 20 mins. • 2). Discarded the supernatant, washed the wells twice with DPBS to eliminate foam and bubbles in the well. Then added DPBS 20 uL/well.
3). Scanned Plate by Operetta.
• 1). Reference compound: Torin 1 • 2). Test compounds: C1, C2, C3, C4, C5, C6. • 3). Diluted compounds in 384 LDV-dilution plate according to the dilution plate map • 4). Compounds starting concentration: Torin 1: 300 nM and Test compounds: 50 uM.
• 1). Selected all nucleus by Operetta as ‘All Cells’ • 2). Calculated the EGFP average intensity inside the Nucleus region. • 3). Selected population that the EGFP mean intensity inside the Nucleus region>background as the EGFP-positive cells • 4). Selected the Surrounding region of the nucleus and calculated the EGFP mean intensity of the region • 5). Inside the EGFP-positive cell population, selected the cells with EGFP mean intensity inside the Nucleus region/the EGFP mean intensity inside the surrounding region=1.2 (This ratio could be slightly adjusted from time to time) as the Translocation positive cell. • 6). Outputted the ratio of Translocation positive cell/EGFP-positive cells as the Translocation Positive Ratio. • 7). Each time set the ratio of DMSO group (Control Group) as ˜15% and then normalized the compound group to the DMSO group.

[4] = translocation positive cells ratio, read-out: TFEB Translocation EC50

SMILES | EC50 (TFEB; [4]) [nM] | also measured
Cc1nc2ccn(Cc3ccco3)c(=O)c2cc1C(=O)NCC1CCC(Cl)CC1 (stereo not drawn) [Comparator 2, reference compound] | – | CLint scaled at 1 μM [1]: 77 mL/min/kg; CLint scaled at 1 μM [2]: 939 mL/min/kg; CLint scaled at 1 μM [3]: 318 mL/min/kg
Cc1ccc(CNC(=O)c2cc3c(=O)n(Cc4ccccc4)ccc3nc2C)o1 [Example 1, 6-benzyl-2-methyl-N-((5-methylfuran-2-yl)methyl)-5-oxo-5,6-dihydro-1,6-naphthyridine-3-carboxamide] | < 100 | CLint scaled at 1 μM [1]: 57 mL/min/kg; CLint scaled at 1 μM [2]: 760 mL/min/kg; CLint scaled at 1 μM [3]: 319 mL/min/kg
Cc1cccc(CNC(=O)c2cc3c(=O)n(Cc4ccccc4)ccc3nc2C)c1 [Example 5, 6-benzyl-2-methyl-N-(3-methylbenzyl)-5-oxo-5,6-dihydro-1,6-naphthyridine-3-carboxamide] | 100 to 1000 | CLint scaled at 1 μM [1]: 171 mL/min/kg; CLint scaled at 1 μM [2]: 1800 mL/min/kg; CLint scaled at 1 μM [3]: 1040 mL/min/kg
Cc1nc2ccn(Cc3ccc(Cl)cc3)c(=O)c2cc1C(=O)NCc1ccc(F)cn1 [Example 51, 6-(4-chlorobenzyl)-N-((5-fluoropyridin-2-yl)methyl)-2-methyl-5-oxo-5,6-dihydro-1,6-naphthyridine-3-carboxamide] | < 100 | CLint scaled at 1 μM [2]: 140 mL/min/kg; CLint scaled at 1 μM [3]: 42 mL/min/kg
Cc1nc2ccn(Cc3ccccc3)c(=O)c2cc1C(=O)NCc1ccc(OC(C)C)cc1 [Example 67, 6-benzyl-N-(4-isopropoxybenzyl)-2-methyl-5-oxo-5,6-dihydro-1,6-naphthyridine-3-carboxamide] | ≥ 10000 | –
Cc1ccc(CNC(=O)c2cc3c(=O)n(Cc4ccccc4)ccc3nc2C)cc1 [Example 68, 6-benzyl-2-methyl-N-(4-methylbenzyl)-5-oxo-5,6-dihydro-1,6-naphthyridine-3-carboxamide] | 100 to 1000 | –
Cc1nc2ccn(Cc3ccccc3)c(=O)c2cc1C(=O)NCc1ccc2c(c1)OCO2 [Example 69, N-(benzo[d][1,3]dioxol-5-ylmethyl)-6-benzyl-2-methyl-5-oxo-5,6-dihydro-1,6-naphthyridine-3-carboxamide] | < 100 | –
Cc1ccc(CNC(=O)c2cc3c(=O)n(Cc4cccs4)ccc3nc2C)o1 [Example 70, 2-methyl-N-((5-methylfuran-2-yl)methyl)-5-oxo-6-(thiophen-2-ylmethyl)-5,6-dihydro-1,6-naphthyridine-3-carboxamide] | < 100 | –
Cc1nc2ccn(Cc3ccccc3)c(=O)c2cc1C(=O)NCc1cccs1 [Example 71, 6-benzyl-2-methyl-5-oxo-N-(thiophen-2-ylmethyl)-5,6-dihydro-1,6-naphthyridine-3-carboxamide] | 100 to 1000 | –
COCCn1ccc2nc(C)c(C(=O)NCc3ccc(C)o3)cc2c1=O [Example 72, 6-(2-methoxyethyl)-2-methyl-N-((5-methylfuran-2-yl)methyl)-5-oxo-5,6-dihydro-1,6-naphthyridine-3-carboxamide] | 100 to 1000 | –
Cc1nc2ccn(Cc3ccccc3)c(=O)c2cc1C(=O)NCCc1ccco1 [Example 73, 6-benzyl-N-(2-(furan-2-yl)ethyl)-2-methyl-5-oxo-5,6-dihydro-1,6-naphthyridine-3-carboxamide] | 1000 to 10000 | –
Nc1nc2ccn(Cc3ccccc3)c(=O)c2cc1C(=O)NCc1ccccn1 [Example 74, 2-amino-6-benzyl-5-oxo-N-(pyridin-2-ylmethyl)-5,6-dihydro-1,6-naphthyridine-3-carboxamide] | 1000 to 10000 | –
Cc1nc2ccn(Cc3ccc(Cl)c(F)c3)c(=O)c2cc1C(=O)NCc1ccccn1 [Example 75, 6-(4-chloro-3-fluorobenzyl)-2-methyl-5-oxo-N-(pyridin-2-ylmethyl)-5,6-dihydro-1,6-naphthyridine-3-carboxamide] | < 100 | –
Cc1nc(CNC(=O)c2cc3c(=O)n(Cc4ccc(F)c(F)c4)ccc3nc2C)co1 [Example 76, 6-(3,4-difluorobenzyl)-2-methyl-N-((2-methyloxazol-4-yl)methyl)-5-oxo-5,6-dihydro-1,6-naphthyridine-3-carboxamide] | < 100 | –
COCCOCCOc1ccc(CNC(=O)c2cc3c(=O)n(Cc4ccc(Cl)cc4)ccc3nc2C)nc1 [Example 77, 6-(4-chlorobenzyl)-N-((5-(2-(2-methoxyethoxy)ethoxy)pyridin-2-yl)methyl)-2-methyl-5-oxo-5,6-dihydro-1,6-naphthyridine-3-carboxamide] | ≥ 10000 | –
Cc1nc(CNC(=O)c2cc3c(=O)n(Cc4ccc(F)cc4)ccc3nc2C)co1 [Example 78, 6-(4-fluorobenzyl)-2-methyl-N-((2-methyloxazol-4-yl)methyl)-5-oxo-5,6-dihydro-1,6-naphthyridine-3-carboxamide] | < 100 | –
Cc1nc(CNC(=O)c2cc3c(=O)n(Cc4cccc(F)c4)ccc3nc2C)co1 [Example 79, 6-(3-fluorobenzyl)-2-methyl-N-((2-methyloxazol-4-yl)methyl)-5-oxo-5,6-dihydro-1,6-naphthyridine-3-carboxamide] | < 100 | –
Cc1nc(CNC(=O)c2cc3c(=O)n(Cc4ccc(Cl)cc4)ccc3nc2C)co1 [Example 80, 6-(4-chlorobenzyl)-2-methyl-N-((2-methyloxazol-4-yl)methyl)-5-oxo-5,6-dihydro-1,6-naphthyridine-3-carboxamide] | < 100 | –
Cc1nc(CNC(=O)c2cc3c(=O)n(Cc4cc(F)cc(F)c4)ccc3nc2C)co1 [Example 81, 6-(3,5-difluorobenzyl)-2-methyl-N-((2-methyloxazol-4-yl)methyl)-5-oxo-5,6-dihydro-1,6-naphthyridine-3-carboxamide] | < 100 | –
CCC(=O)N1CCN(c2ccc(-n3c(=O)ccc4cnc5ccc(-c6cnc7ccccc7c6)cc5c43)cc2C(F)(F)F)CC1 [Torin 1, reference compound] | – | EC50 (TFEB; reference compound, read-out: EC50 of reference compound (TFEB translocation)): 28.3 nM
